Laboratory results taken from patent publication US11028067B2, “Heteroarylsulfonyl-substituted pyridines and their use in the treatment of cancer” (Oblique Therapeutics AB, priority 2017, dated 2021).

Tests used:
[1] = biological target: gluthathione reductase (GR) (Homo sapiens (Human), UniProt P00390); assay: Inhibition of recombinant GR (GSSG assay); type: biochemical; conditions: 2 nM GR, 250 μM NADPH, 15 minutes incubation, 1 mM GSSG
Method: (§1) Small molecule inhibition of recombinant thioredoxin reductase 1 (TrxR1) and gluthathione reductase (GR) was examined in 96-well plate format. 30 nM TrxR1 was incubated in the presence of 250 μM NADPH, 0.1 mg/ml BSA, and various concentrations of the compounds (1% DMSO final) in 50 mM Tris (pH 7.5) and 2 mM EDTA buffer for 15 minutes. Following the incubation period, 2 mM DTNB was added to each well and the change in O.D. at 412 nm was followed. Percent activity was determined using DMSO vehicle and no TrxR1 (blank) controls. 2 nM GR was incubated in the presence of 250 μM NADPH, 0.1 mg/ml BSA, and various concentrations of compounds (1% DMSO final) in 50 mM Tris (pH 7.5) and 2 mM EDTA buffer for 15 minutes. Following the incubation period, 1 mM GSSG was added to each well and the change in O.D. at 340 nm was followed. Percent activity was determined using DMSO vehicle and no GR (blank) controls.

[2] = biological target: recombinant thioredoxin reductase 1 (TrxR1) (Homo sapiens (Human), UniProt Q16881); assay: Inhibition of recombinant TrxR1 (DTNB assay); type: biochemical; conditions: 30 nM TrxR1, 250 μM NADPH, 15 minutes incubation, 2 mM DTNB; read-out: TrxR inhibition
recombinant thioredoxin reductase 1 (TrxR1), sequence (Q16881 151-649): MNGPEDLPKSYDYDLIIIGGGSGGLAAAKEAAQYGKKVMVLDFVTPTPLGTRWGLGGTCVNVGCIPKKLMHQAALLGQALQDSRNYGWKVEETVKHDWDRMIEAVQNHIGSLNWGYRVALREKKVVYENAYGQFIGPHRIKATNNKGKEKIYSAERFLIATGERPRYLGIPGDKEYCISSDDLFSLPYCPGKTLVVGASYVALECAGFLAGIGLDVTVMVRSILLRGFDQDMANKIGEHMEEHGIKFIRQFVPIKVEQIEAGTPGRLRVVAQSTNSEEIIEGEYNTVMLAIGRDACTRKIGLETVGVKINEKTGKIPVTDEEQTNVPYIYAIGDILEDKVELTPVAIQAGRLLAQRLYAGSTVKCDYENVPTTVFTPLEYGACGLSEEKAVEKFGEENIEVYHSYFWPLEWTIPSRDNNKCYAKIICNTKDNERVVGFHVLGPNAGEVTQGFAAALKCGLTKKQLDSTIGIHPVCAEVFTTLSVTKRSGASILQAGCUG
Method: as §1

[3] = tested on: FaDu cells; assay: Head and neck cancer cell viability assay (Cell-Quanti Blue); type: cell-based; conditions: Homo sapiens, 72 hrs, 10% FBS media containing 25 nM selenite
Method: (§2) FaDu cells were plated 2000 cells/well in 96-well black optical plates in the presence of 10% FBS media containing 25 nM selenite. The following day cells were treated with various concentrations of the compound of Example 1 (0.1% DMSO final) and incubated for 72 hrs. After the incubation Cell-Quanti Blue reagent was added to each well and incubated for additional 3 hrs. Fluorescence was read ex: 530 nm/em: 590 nm, and percent of viability was determined using DMSO vehicle and no cell (blank) controls.

[4] = tested on: U-87 MG; assay: Cancer cell viability assay (MTT), U-87 MG; type: cell-based; conditions: 72 hrs, 10% FBS media
Method: (§3) Breast cancer and glioblastoma cell lines were plated 4000 cells/well in 96-well plates in the presence of 10% FBS media. The following day cells were treated with various concentrations of example compounds (0.1% DMSO final) and incubated for 72 hrs. After the incubation An MTT assay was performed to access cell viability. Percent of viability was determined using DMSO vehicle and no cell (blank) controls.

[5] = tested on: MDA-MB-231; assay: Cancer cell viability assay (MTT), MDA-MB-231; type: cell-based; conditions: 10% FBS media
Method: as §3

[6] = tested on: MDA-MB-468; assay: Cancer cell viability assay (MTT), MDA-MB-468; type: cell-based; conditions: 10% FBS media
Method: as §3

[7] = tested on: MDA-MB-231 cells; assay: Breast cancer cell viability assay (Alamar Blue); type: cell-based; conditions: Homo sapiens, 72 hrs, 10% FBS media containing 25 nM selenite
Method: as §2, with “MDA-MB-231” for “FaDu”, “compounds” for “the compound of Example 1”, “Alamar” for “Cell-Quanti”

gluthathione reductase (GR), sequence (P00390 44-522): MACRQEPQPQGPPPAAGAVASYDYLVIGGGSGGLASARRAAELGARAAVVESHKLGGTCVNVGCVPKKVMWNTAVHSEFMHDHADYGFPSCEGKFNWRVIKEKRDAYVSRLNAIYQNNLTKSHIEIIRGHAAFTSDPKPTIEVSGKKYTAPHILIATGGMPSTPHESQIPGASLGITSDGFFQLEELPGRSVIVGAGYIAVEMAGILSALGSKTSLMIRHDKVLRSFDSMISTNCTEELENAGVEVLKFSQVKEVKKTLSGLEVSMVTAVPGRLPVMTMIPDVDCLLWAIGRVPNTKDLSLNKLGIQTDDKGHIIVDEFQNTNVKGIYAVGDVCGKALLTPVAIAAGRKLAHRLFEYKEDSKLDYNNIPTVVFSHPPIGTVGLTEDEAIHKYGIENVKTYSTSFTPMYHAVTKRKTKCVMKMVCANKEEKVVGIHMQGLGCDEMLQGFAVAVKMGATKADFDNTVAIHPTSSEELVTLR

SMILES	IC50 [1] [nM]	IC50 [2] [nM]	IC50 [3] [nM]	IC50 [4] [nM]	IC50 ([5]; 72 hrs) [nM]	IC50 ([6]; 72 hrs) [nM]	IC50 [7] [nM]	IC50 ([4]; Homo sapiens, U-87 MG) [nM]	IC50 ([5]; Homo sapiens, MDA-MB-231, 72 hrs) [nM]	IC50 ([6]; Homo sapiens, MDA-MB-468, 72 hrs) [nM]
O=[N+]([O-])c1ccc(Cl)nc1S(=O)(=O)c1ccccn1 [Example 2, 6-Chloro-3-nitro-2-(pyridin-2-ylsulfonyl)pyridine]	9890	56.9	610	–	–	–	–	–	–	–
COc1ccc([N+](=O)[O-])c([S+]([O-])c2ccccn2)n1 (stereo not drawn) [Example 8, 6-Methoxy-3-nitro-2-(pyridin-2-ylsufinyl)-pyridine]	–	5.5	–	2530	1020	960	–	–	–	–
COc1ccc([N+](=O)[O-])c(S(=O)(=O)c2ncc[nH]2)n1 [Example 6, 2-((1H-imidazol-2-yl)sulfonyl)-6-methoxy-3-nitropyridine]	> 100000	3.99	–	–	–	–	10800	–	–	–
CN(C)c1ccc([N+](=O)[O-])c(S(=O)(=O)c2ccccn2)n1 [Example 3, 6-Dimethylamino-3-nitro-2-(pyridin-2-ylsulfonyl)pyridine]	> 100000	558	2890	–	–	–	–	–	–	–
COc1ccc([N+](=O)[O-])c(S(=O)(=O)c2nc(C)cs2)n1 [Example 7, 2-((6-methoxy-3-nitropyridin-2-yl)sulfonyl)-4-methylthiazole]	> 100000	6.9	45700	–	–	–	3090	–	–	–

Other lines, results leading:

IC50 [1] [nM]	IC50 [2] [nM]	IC50 [3] [nM]	IC50 [4] [nM]	IC50 ([5]; 72 hrs) [nM]	IC50 ([6]; 72 hrs) [nM]	IC50 [7] [nM]	IC50 ([4]; Homo sapiens, U-87 MG) [nM]	IC50 ([5]; Homo sapiens, MDA-MB-231, 72 hrs) [nM]	IC50 ([6]; Homo sapiens, MDA-MB-468, 72 hrs) [nM]	SMILES
64200	26.8	1610	–	–	–	3610	8200	2970	4340	COc1ccc([N+](=O)[O-])c(S(=O)(=O)c2ccccn2)n1 [Example 1, 6-Methoxy-3-nitro-2-(pyridin-2-ylsulfonyl)pyridine]
11200	0.854	–	–	–	–	> 100000	–	–	–	COc1ccc([N+](=O)[O-])c(S(=O)(=O)c2ccncc2)n1 [Example 4, 6-methoxy-3-nitro-2-(pyridin-4-ylsulfonyl)pyridine]
> 100000	10.8	–	–	–	–	4540	–	–	–	COc1ccc([N+](=O)[O-])c(S(=O)(=O)c2ncccn2)n1 [Example 5, 2-((6-methoxy-3-nitropyridin-2-yl)sulfonyl)pyrimidine]
